Results reported in EP4327830A1 (priority 2022, dated 2024).

Assays:
[1] = molecular target: protein phosphatase-1 catalytic subunit (a-Isoform from rabbit, Sigma-Aldrich) (Oryctolagus cuniculus, UniProt P62139); type: biochemical; conditions: read-out: IC50_PPI + SE
[2] = tested on: HEK293 OATP1B3+; conditions: for IC50: read-out: IC50_cytotox on OATP1B3 expressing cell line + SE
[3] = tested on: HEK293 OATP1B1+; conditions: for IC50: read-out: IC50_cytotox on OATP1B1 expressing cell line + SE
[4] = molecular target: type 1 protein phosphatase; conditions: cited from earlier work
[5] = tested on: type 2A protein phosphatases; conditions: cited from earlier work

protein phosphatase-1 catalytic subunit (a-Isoform from rabbit, Sigma-Aldrich), sequence (P62139 whole entry, looked up, canonical isoform): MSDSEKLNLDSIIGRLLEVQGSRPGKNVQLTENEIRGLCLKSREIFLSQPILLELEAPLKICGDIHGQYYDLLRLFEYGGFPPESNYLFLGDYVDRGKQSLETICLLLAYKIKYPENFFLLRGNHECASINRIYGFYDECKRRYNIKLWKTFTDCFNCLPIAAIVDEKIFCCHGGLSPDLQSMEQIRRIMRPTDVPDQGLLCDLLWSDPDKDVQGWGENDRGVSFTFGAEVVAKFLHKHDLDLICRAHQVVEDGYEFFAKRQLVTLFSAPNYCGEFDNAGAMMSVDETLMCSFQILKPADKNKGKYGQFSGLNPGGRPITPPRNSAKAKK

Row | Compound | IC50 [1] | Ratio of IC50_cytotox OATP1B3/ IC50_PPI [2] | IC50 [2] | Ratio of IC50_Cytotox OATP1B1/ IC50_PPI [3] | IC50 [3] | IC50 [4] | IC50 [5]
1 | C=C1C(=O)N[C@H](C)C(=O)N[C@@H](CCCN=[N+]=[N-])C(=O)N[C@@H](C(=O)O)CC(=O)N[C@@H](CCCNC(=N)N)C(=O)N[C@@H](/C=C/C(C)=C/[C@H](C)[C@H](Cc2ccccc2)OC)[C@H](C)C(=O)N[C@@H](C(=O)O)CCC(=O)N1C [MC-(Aznva)R, cyclo(D-Ala-Aznva-D-Asp-R-Adda-D-Glu-Mdha)] | 46.7 ± 9.2 nM | 0.58 | 27 ± 1.5 nM | 0.52 | 24.1 ± 11.5 nM |  | 
2 | C#CCOc1ccc(C[C@@H]2NC(=O)[C@@H](C)NC(=O)C(=C)N(C)C(=O)CC[C@H](C(=O)O)NC(=O)[C@@H](C)[C@H](/C=C/C(C)=C/[C@H](C)[C@H](Cc3ccccc3)OC)NC(=O)[C@H](CCCNC(=N)N)NC(=O)C[C@H](C(=O)O)NC2=O)cc1 [MC-(Prtyr)R, cyclo(D-Ala-Prtyr-D-Asp-R-Adda-D-Glu-Mdha)] | 8.4 ± 5.4 nM | 4.81 | 40.4 ± 36.6 nM | 9.79 | 82.2 ± 4.5 nM |  | 
3 | microcystin-LR |  |  |  |  |  | 0.03 nM | 0.04 nM
